Laboratory results published in patent US6387955B1, “Enhanced anti-angiogenic activity of permanently charged derivatives of steroid hormones” (Pharmos Corporation, priority 1997, dated 2002).

What was measured:
[1] = system: MCF-7 tumors; experiment: Tumor necrosis in MCF-7 tumors by T2-weighted MRI; format: in vivo, nude mice
Protocol: Female CD1-nu/nu athymic mice (6 weeks old) were obtained from the Weizmann Institute Department of Animal Services. MCF-7 cells, serially passed as described above, were detached from the culturing flasks with 0.03% EDTA in phosphate buffered saline (PBS) and washed several times in normal saline. Cells (10^7/innoculum) were then injected into the ventral fat pad at the level of the breast. Coincident with cell introduction, a slow-release pellet of estradiol (0.72 mg/pellet, 45-day release profile; Innovative Research, Sarasota, Fla.) was implanted subcutaneously in the flank of the animal. Mice were anesthetized with ketamine/Rompun (i.p.) for the surgical procedures. […] At this point, animals were randomized into four study groups. In the first, the estrogen pellet was removed and replaced with a slow-release TMI-laden pellet (6.3 mg, 45-day release) (n=5). In the second group, the estrogen pellet was removed and replaced with a tamoxifen pellet (n=7). The third group was treated with a blank (placebo) pellet (n=5), while the fourth group was reimplanted with an estradiol pellet (n=4). TMI and placebo-treated animals were imaged (under ketamine/Rompun anesthesia) either immediately before pellet exchange (day 0) or at day 3, 6, 12 and 25 after pellet exchange.
MRI images were recorded with a Bruker 4.7 (tesla)/30 Biospec spectrometer (Bruker Medizintechnik, Rheinstetten, Germany). 1H Spin-echo images were recorded at 200.12 MHz using a custom-made 4.5 cm rf coil with an image data matrix of 256×128 pixels. Pilot scans of the tumors were completed using a fast transverse multi-slice spin-echo sequence (giving T1-weighted spectra; inter-echo time (TE)=16 msec, recovery time (TR)=500 msec) followed by T2-weighted sequences in which axial slices perpendicular to the spine (i.e., a coronal orientation) were recorded. In the latter case, spin-echo images were obtained using a 4 cm field of view, 1 mm slice thickness, 1.2 mm slice-to-slice distance and a four-sequence average. The TE and TR were optimized to provide the best image contrast generating values of 80 and 3200 msec, respectively. This gave a total imaging time of approximately 30 min. Under the conditions reported, the in-plane resolution was 155×310 μm. Tumor size was calculated using a slice-to-slice reconstruction in which the slice surface area was obtained from histograms provided by the resident Bruker software package using the following relationship:
where XSA is the cross-sectional area of an internal slice, ES is the cross-sectional area of an edge slice, l is the slice thickness and ssd is the distance from the middle of one slice to the middle of the next. For image analysis, the average pixel intensity of viable portions of MCF-7 tumors was determined from a central tumor slice using histograms generated by the dedicated Bruker software package. […] Fibrosis was defined as those areas manifesting a decrease in pixel intensity of […].
In vivo tumor histology was assessed for TMI and placebo-treated tumors using T2-weighted MR images. […] At this time, the area of necrosis was two-fold higher than that observed on day 0 (increasing from an average of 20% to approximately 40%).

[2] = Tolerability in mice; format: in vivo; conditions: mice
[3] = system: MCF-7 tumors; experiment: Capillary density in MCF-7 tumor sections by microscopic morphometry; format: in vivo, nude mice; conditions: viable regions only
Protocol: Tumors from TMI-treated animals and from placebo-treated animals were removed after cervical dislocation. Tumors were treated with a biological dye (Davidson Marking Systems, Bradley Products, Bloomington, Minn.) so that histological sections could be oriented in the same direction as MRI slice images. The histological plane corresponding to the central slice of the MRI study was established by a single cut through the tumor. This plane was based on the position of the tumor in the spectrometer, sagittal, transverse and coronal images and anatomical landmarks. The bisected tumors were fixed in 10% formalin, dehydrated in 70% ethanol, blocked in paraffin. 4 μm histological sections were cut, placed on slides and stained with either hematoxylin-eosin or a modified trichrome method. Hematoxylin-eosin was used to assess viability, necrosis and pigmentation. The modified trichrome method was applied to the identification of fibrotic regions (i.e., the dye stains for mucopolysaccharides).
Vascular density was determined using two techniques: by morphometric analysis of histological sections and by image analysis of GSL-1 lectin stained sections. […] In each field, the number of grid squares containing capillaries, as defined by either the presence of red blood cells or a distinct endothelial cell, were recorded. […]

CC/C(=C(\c1ccccc1)c1ccc(OCC[N+](C)(C)C)cc1)c1ccccc1 [TMI, Tamoxifen methiodide]
total area of necrosis, day three average ([1]; day 3 after pellet exchange): 72% | maximum extent of necrosis ([1]; preliminary comparison of TMI and tamoxifen): 72% | onset of tumor necrosis ([1]; sampling day after pellet exchange): 3 days | tolerability [2]: well tolerated | reduction in capillary area compared with the placebo [3]: 50%
